Converted amounts (≈) assume the structure as drawn.
What was measured:
Escherichia coli [1] = test: Antibacterial activity against Escherichia coli after 18 hrs by disk diffusion method; format: functional, organism-based
Escherichia coli [2] = test: Antibacterial activity against Escherichia coli by micro dilution method; format: functional, organism-based
Aspergillus flavus [3] = test: Antifungal activity against Aspergillus flavus after 10 hrs by spore germination inhibition assay; format: functional
Aspergillus niger [4] = test: Antifungal activity against Aspergillus niger after 10 hrs by spore germination inhibition assay; format: functional
Aspergillus flavus [5] = test: Antifungal activity against Aspergillus flavus after 48 hrs by micro-broth dilution method; format: functional
Aspergillus niger [6] = test: Antifungal activity against Aspergillus niger after 48 hrs by micro-broth dilution method; format: functional
Aspergillus fumigatus [7] = test: Antifungal activity against Aspergillus fumigatus after 48 hrs by micro-broth dilution method; format: functional
Aspergillus fumigatus [8] = test: Antifungal activity against Aspergillus fumigatus after 10 hrs by spore germination inhibition assay; format: functional

Compound	inhibition zone (IZ) (Escherichia coli [1]) [mm]	MIC (Escherichia coli [2]) [µg]	MIC (Aspergillus flavus [3]) [µg/mL]	MIC (Aspergillus niger [4]) [µg/mL]	MIC (Aspergillus flavus [5]) [µg/mL]	MIC (Aspergillus niger [6]) [µg/mL]	MIC (Aspergillus fumigatus [7]) [µg/mL]	MIC (Aspergillus fumigatus [8]) [µg/mL]
GENTAMICIN	16	1						
C[C@@H]1[C@H](O)[C@@H](C)/C=C/C=C/C=C/C=C/C=C/C=C/C=C/[C@H](O[C@@H]2O[C@H](C)[C@@H](O)[C@H](N)[C@@H]2O)C[C@@H]2O[C@](O)(C[C@@H](O)C[C@@H](O)[C@H](O)CC[C@@H](O)C[C@@H](O)CC(=O)O[C@H]1C)C[C@H](O)[C@H]2C(=O)O [AMPHOTERICIN B]			5 (≈ 5.41 µM)	5 (≈ 5.41 µM)	5 (≈ 5.41 µM)	5 (≈ 5.41 µM)	5 (≈ 5.41 µM)	5 (≈ 5.41 µM)

Source: ChEMBL document CHEMBL1148696, “Synthesis, characterization, cytotoxicity, antibacterial and antifungal evaluation of some new platinum (IV) and palladium (II) complexes of thiodiamines” (2007)
